One compound from patent publication US20150118315A1, “AROMATIC-CATIONIC PEPTIDES AND USES OF SAME” (Stealth Peptides International, Inc., priority 2011, published 2015) can be followed below.

Each structure is given as a SMILES string.

The conditions of data set [1]: dog, in vivo. The procedure:
A second series of tests will be carried out, as noted above, using beagle dogs. […] In the experiments, size 00 HPLC capsules will be filled with 758 mg of a powdered blend consisting of citric acid (643 mg), lauroyl carnitine (66 mg), talc (33 mg), salmon calcitonin (sCT) (13 mg) and aromatic-cationic peptide (2.4 mg). Half of the capsules will be coated with an enteric coating solution of L30D-55, while the remaining 50% of the capsules will not be coated. Four fasted dogs will be each given 1 uncoated capsule, and 2 weeks later they will be each given an enteric coated capsule. […] The plasma samples will be subsequently analyzed for sCT by a direct ELISA, and for aromatic-cationic peptide by HPLC-mass spectrometry performed as set forth in Wan, H. and Desiderio, D., Quantitation of dmt-DALDA in ovine plasma by on-line liquid chromatography/quadrapole time-of-flight mass spectrometry, Rapid Communications in Mass Spectrometry, 2003; 17, 538-546, the contents of which are incorporated herein by reference.
The results will be summarized as plasma peptide concentration normalized to a 1 mg dose as a function of time relative to the average Tmax, (i.e., the time at which the maximum amount of peptide is detected). The results are expected to indicate that both peptides, i.e., sCT and aromatic-cationic peptide, are detected in dogs given uncoated or enteric coated capsules.

Data set [2] can be described thus: Blood levels of salmon calcitonin after injection into duodenum, ileum or colon. Type of data set: in vivo. As to conditions: rat, other: injected directly into the duodenum, active components injected directly into the duodenum. The text has this: The pH-lowering agent is believed to lower the local pH (where the active agent has been released) to levels below the optimal range for many intestinal proteases. This decrease in pH reduces the proteolytic activity of the intestinal proteases, thus affording protection to the peptide from potential degradation should the peptide be present within the intestine. The activity of these proteases is diminished by the temporarily acidic environment as discussed herein. For example, sufficient acid should be provided that local intestinal pH is lowered temporarily to 5.5 or below, 4.7 or below, or 3.5 or below. The sodium bicarbonate test described below (in the section captioned “the pH-Lowering Agent”) is indicative of the required acid amount. […] The absorption enhancers of the present formulations synergistically promote peptide absorption into the blood while conditions of reduced proteolytic activity prevail. The mechanism by which the present formulations are believed to accomplish the goal of enhanced bioavailability is aided by having active components of the finished pharmaceutical product released together as simultaneously as possible.
The acid is believed to lower the local intestinal pH, where the aromatic-cationic peptide has been released, to levels below the optimal range for many intestinal proteases and other intestinal enzymes. […]

For the compound `CC(C)C[C@H](NC(=O)[C@H](CCCCN)NC(=O)CNC(=O)[C@H](CC(C)C)NC(=O)[C@@H](NC(=O)[C@@H]1CSSC[C@H](N)C(=O)N[C@@H](CO)C(=O)N[C@@H](CC(N)=O)C(=O)N[C@@H](CC(C)C)C(=O)N[C@@H](CO)C(=O)N[C@@H]([C@@H](C)O)C(=O)N1)C(C)C)C(=O)N[C@@H](CO)C(=O)N[C@@H](CCC(N)=O)C(=O)N[C@@H](CCC(=O)O)C(=O)N[C@@H](CC(C)C)C(=O)N[C@@H](Cc1c[nH]cn1)C(=O)N[C@@H](CCCCN)C(=O)N[C@@H](CC(C)C)C(=O)N[C@@H](CCC(N)=O)C(=O)N[C@H](C(=O)N[C@@H](Cc1ccc(O)cc1)C(=O)N1CCC[C@H]1C(=O)N[C@@H](CCCNC(=N)N)C(=O)N[C@H](C(=O)N[C@@H](CC(N)=O)C(=O)N[C@H](C(=O)NCC(=O)N[C@@H](CO)C(=O)NCC(=O)N[C@H](C(=O)N1CCC[C@H]1C(N)=O)[C@@H](C)O)[C@@H](C)O)[C@@H](C)O)[C@@H](C)O` [salmon calcitonin], the “amount detected in plasma, enteric coated vs non-coated capsules” value in data set [1] is recorded as “nearly eight times”. In addition, the Tmax in data set [2] lay within 5 to 15 min.

The term Tmax denotes the time at which the peak concentration occurs.
